How the values were obtained:
[1] = biological target: T1, bile salt export pump (BSEP) (Homo sapiens, UniProt O95342); assay: Inhibition test on bile salt export pump (BSEP), taurocholic acid uptake in BSEP-Hi5-VT vesicles; type: in vitro ADME
T1 construct: purchased Solvo Biotechnology SB-BSEP-Hi5-VT; host or cells: Hi5 insect cells (read from the product name), membrane vesicles
Method: Compounds were diluted to 100 mM with DMSO; then subjected to a serial dilution of 3-fold for eleven dilutions. The minimum concentration was 0.169 μM. • 2. […] The minimum concentration was 19.5 μM. Experimental Protocol: • 1. ECHO was used to transfer 0.3 μl of DMSO solution of the compounds or diluted DMSO to the corresponding wells of the compounds plate, respectively. • 2. 14.7 μl of ATP Buffer was added into the corresponding wells of the compounds and the zero percent effect (ZPE), respectively. • 3. 14.7 μl of AMP Buffer was added into the corresponding wells of the hundred percent effect (HPE). • 4. The plate was shaken for 10 minutes at 25° C. • 5. 15 μl of BSEP-Hi5-VT Vesicle solution was added to each well separately and the plate was shaken for a further 40 minutes at 25° C. • 6. 5 μl of 0.5 M Ethylenediaminetetraacetic acid (EDTA) solution was immediately added to each well, followed by 65 μl of Buffer B. All reactions were complete. • 7. After the reactions were complete, 95 μl of liquid was transferred from the compounds plate to the filter plate using apparatus. • 8. The liquid receiving plate was placed under the filter plate. Then the liquid was removed using a centrifuge. The liquid on the receiving plate was discarded. • 9. 90 μl of Buffer B was added to the filter plate. The liquid receiving plate was placed under the filter plate. Then the liquid was removed using a centrifuge. The liquid on the receiving plate was discarded. The filter plate was washed three times in total. • 10. The filter plate was left to dry overnight. • 11. On the next day, 80 μl of methanol/water (80/20, v/v) solution was added to the filter plate. • 12. The plate was vibrated for 15 minutes after applying the film to the filter plate. • 13. […] Taurocholic acid in the receiving plate was determined using LC/MS/MS.
Several concentrations were tested in each experiment and the data was analyzed using Prism to produce a concentration-response curve to calculate the IC50 values of the compounds.

[2] = biological target: T2, Human Pregnane X Receptor (PXR) (Homo sapiens, UniProt O75469); assay: Human pregnane X receptor (PXR) test, induction of PXR-mediated CYP3A expression in DPX2 cells; type: in vitro ADME
T2 construct: host or cells: DPX2 cells
T2 sequence (O75469 1-434): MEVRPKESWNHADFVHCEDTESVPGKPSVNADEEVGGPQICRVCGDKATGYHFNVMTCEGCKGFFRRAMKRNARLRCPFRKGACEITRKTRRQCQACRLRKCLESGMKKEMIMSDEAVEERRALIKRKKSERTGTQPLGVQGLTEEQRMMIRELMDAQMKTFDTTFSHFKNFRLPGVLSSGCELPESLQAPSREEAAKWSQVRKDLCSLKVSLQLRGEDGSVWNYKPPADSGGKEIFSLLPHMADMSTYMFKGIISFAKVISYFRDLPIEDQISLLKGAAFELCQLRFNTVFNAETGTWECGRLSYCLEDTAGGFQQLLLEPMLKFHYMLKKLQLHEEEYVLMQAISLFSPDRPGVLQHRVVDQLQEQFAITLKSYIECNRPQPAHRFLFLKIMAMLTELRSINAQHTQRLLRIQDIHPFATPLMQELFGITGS
Method: To assess the induction of PXR-mediated CYP3A expression by the compounds.
Experimental Protocol: • 1. The DPX2 cells was thawed under aseptic conditions. • 2. The DPX2 cytosol was distributed in 96-well plates (100 μl/well) and placed the plates in a 5% CO2/37° C. incubator overnight. • 3. The quantitative feeding medium was thawed in a 37° C. water bath. The positive control rifampicin was thawed at room temperature. A series of the test compound and positive control dilutions were prepared in quantitative feeding medium. The medium was carefully aspirated and discarded from each well, without disturbing the cells during the aspiration process. […] Enzyme activity test: • (1) 7 μl of Luciferin-IPA was added to 7 ml of quantitative feeding medium, inverted to mix, and poured into the Luciferin-IPA reagent tank. • (2) The 96-well plate was taken out of the incubator and the medium was carefully aspirated from each well. […] The plate was placed back to the incubator for 60 minutes. • (7) 40 μl of Luciferin detection reagent/P450-Glo buffer was added to each well of the replicate plate, stirred and incubated for 20 minutes at room temperature. • (8) After incubation with Luciferin detection reagent for 20 minutes, a luminometer (set for 1-5 seconds. Read out time) was used to determine the luminescence of each well of the white 96-well plate. […] The fluorescence intensity of each well was measured. […]

T1 sequence (O95342 whole entry): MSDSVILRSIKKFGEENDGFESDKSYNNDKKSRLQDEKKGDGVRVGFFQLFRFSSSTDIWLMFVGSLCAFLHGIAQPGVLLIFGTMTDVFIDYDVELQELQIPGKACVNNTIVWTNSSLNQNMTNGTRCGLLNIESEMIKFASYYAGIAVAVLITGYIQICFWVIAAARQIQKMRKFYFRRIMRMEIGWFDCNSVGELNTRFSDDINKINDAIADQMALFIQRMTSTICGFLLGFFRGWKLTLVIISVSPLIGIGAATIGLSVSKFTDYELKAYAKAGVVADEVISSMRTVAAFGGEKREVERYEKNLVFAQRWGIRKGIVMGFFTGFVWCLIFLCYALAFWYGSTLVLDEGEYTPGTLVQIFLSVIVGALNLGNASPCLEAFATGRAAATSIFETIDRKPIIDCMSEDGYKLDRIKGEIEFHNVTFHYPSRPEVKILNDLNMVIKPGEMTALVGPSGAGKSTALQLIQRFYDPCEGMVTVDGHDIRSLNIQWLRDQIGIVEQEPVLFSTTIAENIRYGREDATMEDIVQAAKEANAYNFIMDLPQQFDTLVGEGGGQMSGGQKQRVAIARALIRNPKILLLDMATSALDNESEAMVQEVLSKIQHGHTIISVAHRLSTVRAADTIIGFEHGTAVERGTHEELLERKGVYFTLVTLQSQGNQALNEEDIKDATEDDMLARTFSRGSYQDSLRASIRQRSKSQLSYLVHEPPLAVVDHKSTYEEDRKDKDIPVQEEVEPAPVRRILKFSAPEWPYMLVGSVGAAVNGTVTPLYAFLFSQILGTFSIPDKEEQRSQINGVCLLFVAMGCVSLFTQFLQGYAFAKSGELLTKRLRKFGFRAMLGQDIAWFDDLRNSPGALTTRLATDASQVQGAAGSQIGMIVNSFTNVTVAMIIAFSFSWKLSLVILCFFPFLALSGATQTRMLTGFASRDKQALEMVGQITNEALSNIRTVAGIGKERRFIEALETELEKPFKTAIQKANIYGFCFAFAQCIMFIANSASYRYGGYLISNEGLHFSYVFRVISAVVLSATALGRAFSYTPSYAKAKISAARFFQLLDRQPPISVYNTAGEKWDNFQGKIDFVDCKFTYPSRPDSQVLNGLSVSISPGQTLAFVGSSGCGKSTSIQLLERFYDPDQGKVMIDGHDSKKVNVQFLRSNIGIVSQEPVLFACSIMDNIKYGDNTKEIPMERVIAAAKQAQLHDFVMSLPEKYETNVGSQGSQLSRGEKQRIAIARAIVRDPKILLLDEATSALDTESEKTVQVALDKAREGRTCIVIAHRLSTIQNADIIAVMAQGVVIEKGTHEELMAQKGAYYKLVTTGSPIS

Structure (SMILES) | Inhibitory effect on bile salt export pump (in words) [1] | Induction of PXR-mediated CYP3A expression (in words) [2] | IC50 ([1]; taurocholic acid substrate, BSEP-Hi5-VT vesicles) [µM]
COCCNS(=O)(=O)Nc1ncnc(OCCOc2ncc(Br)cn2)c1-c1ccc2c(c1)OCO2 [Compound of formula (I)] | extremely weak inhibitory effect | weak induction | 
CCCNS(=O)(=O)Nc1ncnc(OCCOc2ncc(Br)cn2)c1-c1ccc(Br)cc1 [Macitentan, reference compound] | strong inhibitory effect | strong induction | 0.47
